Results as given in the NIST ThermoML archive (doi:10.1016/j.jct.2003.11.008).
± gives the expanded uncertainty stated by the source.

Experiments:
[1] = xn = mol fraction of the nth substance listed; conditions: 318.15 K, 101.3 kPa, Liquid
[2] = excess molar enthalpy (molar enthalpy of mixing); xn = mol fraction of the nth substance listed; conditions: 318.15 K, 101.3 kPa, Liquid

CCCCCCCCCCCCCCCCC [heptadecane] + CCCCCOC(C)=O
Conditions	excess molar enthalpy [kcal/mol]	excess molar volume [m3/mol]
[1], x2 = 0.1194	–	3.74e-07 ± 1.7e-08
[1], x2 = 0.1753	–	5.21e-07 ± 1.8e-08
[1], x2 = 0.2989	–	7.64e-07 ± 1.9e-08
[1], x2 = 0.3689	–	8.67e-07 ± 2e-08
[1], x2 = 0.421	–	9.1e-07 ± 2e-08
[1], x2 = 0.4657	–	9.43e-07 ± 2e-08
[1], x2 = 0.5081	–	9.6e-07 ± 2e-08
[1], x2 = 0.5464	–	9.64e-07 ± 2e-08
[1], x2 = 0.6072	–	9.39e-07 ± 2e-08
[1], x2 = 0.6743	–	8.96e-07 ± 2e-08
[1], x2 = 0.7316	–	8.42e-07 ± 1.9e-08
[1], x2 = 0.7894	–	7.23e-07 ± 1.9e-08
[1], x2 = 0.8384	–	6.22e-07 ± 1.8e-08
[1], x2 = 0.8842	–	4.84e-07 ± 1.8e-08
[1], x2 = 0.9288	–	3.29e-07 ± 1.7e-08
[1], x2 = 0.9702	–	1.42e-07 ± 1.6e-08
[2], x2 = 0.0881	0.101 ± 0.00194	–
[2], x2 = 0.1856	0.188 ± 0.00335	–
[2], x2 = 0.2815	0.259 ± 0.0043	–
[2], x2 = 0.3678	0.306 ± 0.00502	–
[2], x2 = 0.4492	0.331 ± 0.0055	–
[2], x2 = 0.5202	0.339 ± 0.00574	–
[2], x2 = 0.5818	0.337 ± 0.0055	–
[2], x2 = 0.6246	0.326 ± 0.0055	–
[2], x2 = 0.6651	0.308 ± 0.00502	–
[2], x2 = 0.7105	0.285 ± 0.00478	–
[2], x2 = 0.7575	0.258 ± 0.0043	–
[2], x2 = 0.807	0.223 ± 0.00382	–
[2], x2 = 0.8571	0.18 ± 0.00311	–
[2], x2 = 0.905	0.13 ± 0.00239	–
[2], x2 = 0.9532	0.0725 ± 0.00151	–

CCCCCCCCC [nonane] + COC(C)=O
Conditions	excess molar enthalpy [kcal/mol]	excess molar volume [m3/mol]
[1], x2 = 0.1052	–	6.91e-07 ± 1.9e-08
[1], x2 = 0.2035	–	1.199e-06 ± 2.1e-08
[1], x2 = 0.2896	–	1.534e-06 ± 2.3e-08
[1], x2 = 0.3598	–	1.693e-06 ± 2.3e-08
[1], x2 = 0.4249	–	1.805e-06 ± 2.4e-08
[1], x2 = 0.4901	–	1.864e-06 ± 2.4e-08
[1], x2 = 0.547	–	1.881e-06 ± 2.4e-08
[1], x2 = 0.5991	–	1.837e-06 ± 2.4e-08
[1], x2 = 0.6418	–	1.774e-06 ± 2.4e-08
[1], x2 = 0.6901	–	1.658e-06 ± 2.3e-08
[1], x2 = 0.7312	–	1.562e-06 ± 2.3e-08
[1], x2 = 0.7687	–	1.431e-06 ± 2.2e-08
[1], x2 = 0.7969	–	1.305e-06 ± 2.2e-08
[1], x2 = 0.8736	–	9.39e-07 ± 2e-08
[1], x2 = 0.925	–	6.28e-07 ± 1.8e-08
[1], x2 = 0.9663	–	3.07e-07 ± 1.7e-08
[2], x2 = 0.0822	0.131 ± 0.00239	–
[2], x2 = 0.1628	0.241 ± 0.00406	–
[2], x2 = 0.2353	0.335 ± 0.0055	–
[2], x2 = 0.2999	0.398 ± 0.00645	–
[2], x2 = 0.364	0.448 ± 0.00741	–
[2], x2 = 0.4195	0.481 ± 0.00789	–
[2], x2 = 0.4714	0.497 ± 0.00813	–
[2], x2 = 0.5122	0.504 ± 0.00813	–
[2], x2 = 0.549	0.507 ± 0.00813	–
[2], x2 = 0.5847	0.506 ± 0.00813	–
[2], x2 = 0.621	0.502 ± 0.00813	–
[2], x2 = 0.6618	0.49 ± 0.00789	–
[2], x2 = 0.7017	0.463 ± 0.00765	–
[2], x2 = 0.7452	0.433 ± 0.00717	–
[2], x2 = 0.7891	0.388 ± 0.00645	–
[2], x2 = 0.8353	0.343 ± 0.00574	–
[2], x2 = 0.8771	0.289 ± 0.00478	–
[2], x2 = 0.9219	0.208 ± 0.00359	–
[2], x2 = 0.9643	0.103 ± 0.00203	–

COC(C)=O [methyl ethanoate] + CCCCCCC
Conditions	excess molar enthalpy [kcal/mol]	excess molar volume [m3/mol]
[1], x1 = 0.096	–	6.73e-07 ± 1.9e-08
[1], x1 = 0.1583	–	9.83e-07 ± 2e-08
[1], x1 = 0.2293	–	1.293e-06 ± 2.2e-08
[1], x1 = 0.2947	–	1.495e-06 ± 2.2e-08
[1], x1 = 0.3534	–	1.597e-06 ± 2.3e-08
[1], x1 = 0.408	–	1.665e-06 ± 2.3e-08
[1], x1 = 0.4619	–	1.705e-06 ± 2.3e-08
[1], x1 = 0.5159	–	1.699e-06 ± 2.3e-08
[1], x1 = 0.5572	–	1.659e-06 ± 2.3e-08
[1], x1 = 0.6064	–	1.605e-06 ± 2.3e-08
[1], x1 = 0.6501	–	1.535e-06 ± 2.3e-08
[1], x1 = 0.6915	–	1.451e-06 ± 2.2e-08
[1], x1 = 0.7275	–	1.345e-06 ± 2.2e-08
[1], x1 = 0.7645	–	1.228e-06 ± 2.1e-08
[1], x1 = 0.8471	–	8.83e-07 ± 2e-08
[1], x1 = 0.9111	–	5.53e-07 ± 1.8e-08
[1], x1 = 0.9577	–	2.83e-07 ± 1.7e-08
[2], x1 = 0.0778	0.136 ± 0.00263	–
[2], x1 = 0.1534	0.243 ± 0.00406	–
[2], x1 = 0.2251	0.331 ± 0.0055	–
[2], x1 = 0.2785	0.378 ± 0.00621	–
[2], x1 = 0.3445	0.426 ± 0.00693	–
[2], x1 = 0.4038	0.451 ± 0.00741	–
[2], x1 = 0.4555	0.461 ± 0.00765	–
[2], x1 = 0.5034	0.465 ± 0.00765	–
[2], x1 = 0.5451	0.461 ± 0.00741	–
[2], x1 = 0.5759	0.456 ± 0.00741	–
[2], x1 = 0.6498	0.428 ± 0.00693	–
[2], x1 = 0.6832	0.416 ± 0.00693	–
[2], x1 = 0.7322	0.389 ± 0.00645	–
[2], x1 = 0.7698	0.356 ± 0.00598	–
[2], x1 = 0.8184	0.313 ± 0.00526	–
[2], x1 = 0.873	0.25 ± 0.0043	–
[2], x1 = 0.9036	0.189 ± 0.00335	–
[2], x1 = 0.9534	0.108 ± 0.00206	–
